Columns and labels:
cucumber downy mildew = assay: In vivo pot determination, control effect on cucumber downy mildew; conditions: 400 ppm, foliar spray, parallel comparison (Table 4)
Protocol: (§1) An in vivo pot determination method was adopted, i.e., a sample of the compound to be tested was dissolved with a small amount of solvent (the type of the solvent may be, for example, acetone, methanol and DMF, and selected according to the capability to dissolve the sample; the volume ratio of the amount of the solvent to the amount of sprayed solution is equal to or less than 0.05), diluted with water containing 0.1% Tween 80 and formulated into a required concentration of solution to be tested. Foliar spray treatment was carried out with the compounds of the present invention at the designed concentrations. A blank control with clear water spray was set and repeated for three times. Disease inoculation was carried out on the second day after the treatment. After inoculation, the plants were placed in a phytotron for moisturizing cultivation (temperature: 25° C. on day, 20° C. at night, relative humidity 95-99%). […] After the control was fully diseased (generally one week), the control effects of the compounds were evaluated. For the result survey, A Manual of Assessment Keys for Plant Diseases compiled by American Phytopathological Society can be referred to, which uses 100-0 for representation. “100” level represents no disease and “0” level represents the most severe disease degree.

[1] = system: melon bacterial fruit blotch; assay: Control effect on melon bacterial fruit blotch (seed soak, greenhouse); assay type: in vivo; conditions: 400 mg/L, seeds soaked in bacteria plus compound solution
Protocol: (§2) The compounds of the present invention are used to determine the control effect on various plant bacterial diseases. For different bacterial diseases, the test procedures are as follows:
Melon bacterial fruit blotch: the compound to be tested is dissolved with a small amount of N,N dimethylformamide and diluted with water to the required concentration. The pathogenic bacteria cultured to a stable growth stage is evenly mixed with a quantitative compound solution; the germinated melon seeds are soaked in the mixed solution of a bacteria solution and the compound for half an hour; then, the seeds are sown in an earthworm soil culture cup and put into a greenhouse for moisturizing cultivation for two weeks generally; and the control effect is investigated after full onset of diseases through control.

[2] = system: soft rot of Chinese cabbage; assay: Control effect on soft rot of Chinese cabbage (leaf piece, spray, needle wound inoculation); assay type: in vivo, soft rot bacteria of Chinese cabbage; conditions: 400 mg/L, sprayed on leaf, 48 hours in the dark
Text: as §2
Soft rot of Chinese cabbage: 2 cm of square Chinese cabbage leaf is cut and placed in a glass petri dish lined with double-layer filter paper. A compound dissolved in N,N dimethylformamide and diluted with water to a required concentration is sprayed onto the surface of the Chinese cabbage leaf. After the medicinal liquid on the surface of the Chinese cabbage leaf is dried in a fume hood, the surface of the Chinese cabbage leaf is acupunctured by using an inoculating needle to cause a wound. […] of soft rot bacteria of Chinese cabbage cultured to a stable growth period is added to the wound for inoculation. Finally, the test materials are placed in an incubator and cultured for 48 hours in the dark; and the control effect is investigated after full onset of diseases through control.

[3] = system: bacterial spot of cucumber (Pseudomonas syringae pv. lachrymans); assay: Field trial, control of bacterial spot of cucumber; assay type: in vivo; conditions: whole plant spray three times at 7 day interval, investigated 7 days after last delivery
Protocol: Compounds 47 and 97 were selected from the above compounds for field trial to control bacterial spot of cucumber (Pseudomonas syringae pv. lachrymans). The treatment dose of the test drug was 400 mg/L, and the treatment dose of a control drug CK2 was 700 mg/L. The test drug and the control drug were arranged in random blocks; the plot area was 15 m^2; and repetition was conducted for 3 times. The drug delivery mode was the whole plant spray. Drug delivery was conducted for three times, with an interval of 7 days, and control effect investigation was carried out 7 days after the last drug delivery. During investigation, 5 points in each plot were sampled; all leaves were investigated; and disease indexes and control effects were calculated according to the percentage level of diseased spot area of each leaf in the whole leaf area.

soybean rust = assay: In vivo pot determination, control effect on soybean rust; conditions: foliar spray
Protocol: as §1

| SMILES | control effects on melon bacterial fruit blotch [1] [%] | control effects on soft rot of Chinese cabbage [2] [%] | other results |
| --- | --- | --- | --- |
| N#CC(C#N)=NOCc1csc(NC(=O)c2ccc([N+](=O)[O-])c(F)c2)n1 [Compound 45] | 100 | 100 | Control Effects on Cucumber Downy Mildew (%) (cucumber downy mildew): 100% |
| N#CC(C#N)=NOCc1csc(NC(=O)c2ccc(F)c(F)c2)n1 [Compound 87] | 100 | 100 |  |
| N#CC(C#N)=NOCc1csc(NC(=O)c2ccc3c(c2)OC(F)(F)O3)n1 [Compound 366] | 100 | 100 |  |
| N#CC(C#N)=NOCc1csc(NC(=O)c2ccccc2)n1 [Compound 95] | 100 | 100 |  |
| N#CC(C#N)=NOCc1csc(NC(=O)c2ccccc2C(F)(F)F)n1 [Compound 20] | 100 | 100 | Control Effects on Cucumber Downy Mildew (%) (cucumber downy mildew): 100% |
| CCC(=O)Nc1nc(CON=C(C#N)C#N)cs1 [Compound 118] | 100 | 100 |  |
| CC=CC(=O)Nc1nc(CON=C(C#N)C#N)cs1 [Compound 117] | 100 | 100 | Control Effects on Cucumber Downy Mildew (%) (cucumber downy mildew): 100% |
| N#CC(C#N)=NOCc1csc(NC(=O)c2cccnc2)n1 [Compound 65] | 100 | 100 |  |
| N#CC(C#N)=NOCc1csc(-c2ccccc2)n1 [CK2, reference compound] |  |  | Control Effects on Cucumber Downy Mildew (%) (cucumber downy mildew): 0%; Control Effect (%) ([3]; active ingredient dose 700 mg/L): 76.89% |
| N#CC(C#N)=NOCc1csc(N)n1 [Compound 47, ((2-aminothiazole-4-yl)methoxy)iminoimide dicyanide] | 100 | 100 | Control Effects on Soybean Rust (%) (soybean rust; 100 ppm): 85%; Control Effects on Soybean Rust (%) (soybean rust; 200 ppm): 100%; Control Effect (%) ([3]; active ingredient dose 400 mg/L): 77.00% |
| N#CC(=NOCc1csc(NC(=O)c2ccccc2Cl)n1)C(N)=O [Compound 134] | 100 | 100 |  |
| N#CC(C#N)=NOCc1csc(NC(=O)c2ccc(F)cc2F)n1 [Compound 86] | 100 | 100 |  |
| Cc1ccc(S(=O)(=O)Nc2nc(CON=C(C#N)C(N)=O)cs2)cc1 [Compound 228] | 100 | 100 |  |
| N#CC(C#N)=NOCc1cnc(Cl)s1 [CK1, reference compound] |  |  | Control Effects on Cucumber Downy Mildew (%) (cucumber downy mildew): 0%; Control Effects on Soybean Rust (%) (soybean rust; 100 ppm): 0%; Control Effects on Soybean Rust (%) (soybean rust; 200 ppm): 0% |
| N#CC(C#N)=NOCc1csc(NC(=O)c2ccc(C(F)(F)F)cc2)n1 [Compound 22] | 100 | 100 |  |
| N#CC(C#N)=NOCc1csc(-c2ccc(Cl)cc2)n1 [CK3, reference compound] |  |  | Control Effects on Cucumber Downy Mildew (%) (cucumber downy mildew): 0% |

| SMILES | control effects on melon bacterial fruit blotch [1] [%] | control effects on soft rot of Chinese cabbage [2] [%] | other results |
| --- | --- | --- | --- |
| N#CC(C#N)=NOCc1csc(NC(=O)c2ccc(Cl)cc2)n1 [Compound 4] | 100 | 100 |  |
| N#CC(C#N)=NOCc1csc(NC(=O)c2cccc(F)c2)n1 [Compound 6] | 100 | 100 |  |
| N#CC(=NOCc1csc(N)n1)C(N)=O [Compound 179] | 100 | 100 | Control Effects on Soybean Rust (%) (soybean rust; 100 ppm): 80%; Control Effects on Soybean Rust (%) (soybean rust; 200 ppm): 100% |
| N#CC(C#N)=NOCc1csc(NC(=O)c2ccccc2F)n1 [Compound 5] | 100 | 100 |  |
| N#CC(C#N)=NOCc1csc(NN=C(c2ccc(Cl)cc2)c2ccc(Cl)cc2)n1 [Compound 367] | 100 | 100 |  |
| N#CC(C#N)=NOCc1csc(NC(=O)c2ccccc2OC(F)(F)F)n1 [Compound 23] | 100 | 100 | Control Effects on Soybean Rust (%) (soybean rust; 100 ppm): 100%; Control Effects on Soybean Rust (%) (soybean rust; 200 ppm): 100% |
| N#CC(C#N)=NOCc1csc(NC(=O)c2ccc(F)c(C(F)(F)F)c2)n1 [Compound 74] | 100 | 100 |  |
| CC(=NNc1nc(CON=C(C#N)C#N)cs1)c1ccc(F)cc1 [Compound 361] | 100 | 100 |  |
| N#CC(C#N)=NOCc1csc(NC(=O)c2ccc(Cl)cc2Cl)n1 [Compound 34] | 100 | 100 |  |
| N#CC(C#N)=NOCc1csc(NC(=O)C(F)(F)F)n1 [Compound 119] | 100 | 100 |  |
| CCc1ccc(C(=O)Nc2nc(CON=C(C#N)C#N)cs2)cc1 [Compound 365] |  |  | Control Effects on Soybean Rust (%) (soybean rust; 100 ppm): 100%; Control Effects on Soybean Rust (%) (soybean rust; 200 ppm): 100% |
| CC(C)(C)OC(=O)Nc1nc(CON=C(C#N)C(N)=O)cs1 [Compound 253] | 100 | 100 |  |
| CC(C)(C)OC(=O)Nc1nc(CON=C(C#N)C#N)cs1 [Compound 123] | 100 | 100 |  |
| N#CC(C#N)=NOCc1csc(NC(=O)c2ccc(Cl)c(Cl)c2)n1 [Compound 36] | 100 | 100 |  |
| N#CC(C#N)=NOCc1csc(NC(=O)c2ccc(Br)cc2)n1 [Compound 10] |  |  | Control Effects on Soybean Rust (%) (soybean rust; 100 ppm): 100%; Control Effects on Soybean Rust (%) (soybean rust; 200 ppm): 100% |

From patent US12262712B2, “Oxime ether compound and application thereof” (SHENYANG SINOCHEM AGROCHEMICALS R&D CO., LTD., priority 2019, dated 2025)
